Experimental data taken from patent US11161846B2, “Substituted pyrazolo[4,3-b]pyridines and their use as GluN2B receptor modulators” (JANSSEN PHARMACEUTICA NV, priority 2019, dated 2021).

Key:
[1] = target: T1, human GluN1/GluN2B NMDA receptors (Homo sapiens, UniProt Q05586+Q13224); assay: Calcium flux (FLIPR) assay on cloned human NR1/GluN2B ion channels expressed in mammalian cells, standard assay; assay type: cell-based; conditions: glutamate ~EC40 and 10 μM glycine, stable cell line with Tet-On induced expression
T1 construct: expressed in transfected cells
Procedure, shortened: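 Tet-On-induced stable mammalian line loaded with Calcium 5 dye (0.5 mM MgCl2 loading buffer), then assayed in pH 7.4 buffer with 137 mM NaCl, 4 mM KCl, 2 mM CaCl2. Compound was added for 5 min, then glutamate (~EC40) plus 10 µM glycine for 5 min. FLIPR fluorescence was normalized to control wells.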

[2] = Liver microsomal stability (extraction ratio); assay type: in vitro ADME; conditions: test compound 1 μM; 0.5 mg/mL liver microsomes, NADPH, 37° C.; species not given (method: mouse, rat, and human)
Experimental: Protocol for Liver Microsomal Stability (Extraction Ratio)
Liver Microsomal Stability.
Microsomal stability studies (Chrovian et al, “1H-Pyrrolo[3,2-b]pyridine GluN2B-Selective Negative Allosteric Modulators”. ACS Med Chem Lett. 2019 Jan. 10; 10(3):261-266) were conducted on a Biomek® FX Robotic Liquid Handling Workstation (Beckman Coulter, Brea, Calif.), which consists of a 96-channel pipette head, a 12-position workstation deck, and a plate incubator. Test compounds (1 μm) were spiked in a reaction mix consisting of 100 mM potassium phosphate buffer (pH 7.4), 3 mM MgCl2, and 0.5 mg/mL liver microsomes from mouse, rat, and human (BD Gentest). The reaction was brought to 37° C. and initiated by adding NADPH to a final concentration of 1 mM. After mixing on the plate deck, 50 μL aliquots were excised from the reaction plate at 0, 5, 10, 20, 40, and 60 min and quenched with four volumes of acetonitrile spiked with […] of the internal standard phenytoin. Quenched plates were centrifuged at 5700 rpm for 10 min at 4° C., and supernatant was diluted 1:3 in water before LC/MS/MS analysis. The compound half-lives were derived from plots of the ln of percent remaining compound over time to determine the intrinsic clearance. The predicted hepatic clearance was derived from the intrinsic clearance value using equations from the well-stirred model (Current Drug Metabolism, 2008, 9, 940-951), where no correction was made plasma protein binding and the blood to plasma concentration ratio was assumed to be one. The extraction ratio (ER) was calculated by dividing the predicted hepatic clearance by species blood flow (Q), where Q is 90, 55, and 21.7 mL/min/kg for mouse, rat and human, respectively.

T1 sequence (Q13224 27-1484, other chains not shown): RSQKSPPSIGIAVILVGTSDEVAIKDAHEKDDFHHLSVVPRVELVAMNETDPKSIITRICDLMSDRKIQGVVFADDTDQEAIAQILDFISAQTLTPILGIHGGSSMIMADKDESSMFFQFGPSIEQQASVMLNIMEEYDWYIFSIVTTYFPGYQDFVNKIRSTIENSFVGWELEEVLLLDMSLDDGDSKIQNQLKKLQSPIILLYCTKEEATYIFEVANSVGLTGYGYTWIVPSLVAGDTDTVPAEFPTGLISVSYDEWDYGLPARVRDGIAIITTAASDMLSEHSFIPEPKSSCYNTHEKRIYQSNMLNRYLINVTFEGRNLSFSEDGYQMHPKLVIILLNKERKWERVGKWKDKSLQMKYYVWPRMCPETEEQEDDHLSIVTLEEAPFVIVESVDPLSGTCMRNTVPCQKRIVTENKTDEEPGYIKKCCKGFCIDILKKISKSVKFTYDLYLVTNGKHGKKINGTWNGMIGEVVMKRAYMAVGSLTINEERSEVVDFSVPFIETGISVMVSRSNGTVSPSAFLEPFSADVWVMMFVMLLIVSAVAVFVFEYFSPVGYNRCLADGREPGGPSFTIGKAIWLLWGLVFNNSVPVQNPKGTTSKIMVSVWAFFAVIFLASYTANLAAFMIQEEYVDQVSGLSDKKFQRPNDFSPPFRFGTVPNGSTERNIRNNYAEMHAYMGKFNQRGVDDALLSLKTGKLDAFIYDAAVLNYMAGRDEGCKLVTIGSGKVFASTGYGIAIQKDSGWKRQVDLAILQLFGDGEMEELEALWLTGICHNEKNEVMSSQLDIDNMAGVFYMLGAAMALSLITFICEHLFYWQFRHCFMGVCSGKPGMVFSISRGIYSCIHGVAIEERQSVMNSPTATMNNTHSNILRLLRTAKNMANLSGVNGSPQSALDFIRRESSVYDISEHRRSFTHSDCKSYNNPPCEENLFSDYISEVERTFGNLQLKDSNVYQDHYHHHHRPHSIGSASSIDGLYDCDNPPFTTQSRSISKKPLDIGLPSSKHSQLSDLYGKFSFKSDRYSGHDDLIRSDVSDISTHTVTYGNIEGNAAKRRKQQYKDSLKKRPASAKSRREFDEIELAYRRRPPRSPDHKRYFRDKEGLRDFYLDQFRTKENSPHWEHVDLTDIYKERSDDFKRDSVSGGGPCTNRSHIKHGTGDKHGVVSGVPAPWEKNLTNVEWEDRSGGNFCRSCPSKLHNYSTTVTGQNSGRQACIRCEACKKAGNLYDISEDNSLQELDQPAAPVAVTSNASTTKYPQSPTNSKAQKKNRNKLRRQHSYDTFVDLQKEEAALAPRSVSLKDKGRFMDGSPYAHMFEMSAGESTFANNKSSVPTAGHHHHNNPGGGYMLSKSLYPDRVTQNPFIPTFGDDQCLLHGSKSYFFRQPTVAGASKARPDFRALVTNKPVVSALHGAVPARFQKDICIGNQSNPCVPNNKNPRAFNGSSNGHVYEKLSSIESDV

Row | Compound | IC50 [1] [nM] | Extraction Ratio @ 1 μM [2]
1 | CCC(=O)Cn1ncc2ncc(-c3ccc(F)c(C(F)F)c3)cc21 [Example 4, 1-[6-[3-(Difluoromethyl)-4-fluoro-phenyl]pyrazolo[4,3-b]pyridin-1-yl]butan-2-one] | 10 | 0.66
2 | CCC(=O)Cn1ncc2ncc(-c3cc(F)c(F)c(F)c3)cc21 [Example 42, 1-[6-(3,4,5-Trifluorophenyl)pyrazolo[4,3-b]pyridin-1-yl]butan-2-one] | 27 | 0.63
3 | CC[S+]([O-])Cn1ncc2ncc(-c3ccc(F)c(C(F)F)c3)cc21 (single isomer, unassigned) [Example 85, (R*)-6-(3-(Difluoromethyl)-4-fluorophenyl)-1-((ethylsulfinyl)methyl)-1H-pyrazolo[4,3-b]pyridine] | 66 | 0.46
4 | CCC(=O)Cn1nc(C)c2ncc(-c3ccc(F)c(C(F)F)c3)cc21 [Example 36, 1-(6-(3-(Difluoromethyl)-4-fluorophenyl)-3-methyl-1H-pyrazolo[4,3-b]pyridin-1-yl)butan-2-one] | 27 | 0.72
5 | CCC(=O)Cn1ncc2ncc(-c3cccc(C(F)(F)F)c3F)cc21 [Example 38, 1-[6-[2-Fluoro-3-(trifluoromethyl)phenyl]pyrazolo[4,3-b]pyridin-1-yl]butan-2-one] | 30 | 0.61
6 | CCN1CC(Cn2ncc3ncc(-c4ccc(F)c(C(F)F)c4)cc32)OC1=O (racemic) [Example 131, (RS)-5-[[6-[3-(Difluoromethyl)-4-fluoro-phenyl]pyrazolo[4,3-b]pyridin-1-yl]methyl]-3-ethyl-oxazolidin-2-one] | 193 | 0.58
7 | CC[S+]([O-])Cn1ncc2ncc(-c3cccc(C(F)(F)F)c3F)cc21 (racemic) [Example 86, (RS)-1-(Ethylsulfinylmethyl)-6-[2-fluoro-3-(trifluoromethyl)phenyl]pyrazolo[4,3-b]pyridine] | 80 | 0.50
8 | CC(=O)Cn1ncc2ncc(-c3ccc(F)c(OC(F)F)c3)cc21 [Example 25, 1-[6-[3-(Difluoromethoxy)-4-fluoro-phenyl]pyrazolo[4,3-b]pyridin-1-yl]propan-2-one] | 34 | 0.64
9 | O=C(Cn1ncc2ncc(-c3cccc(C(F)F)c3)cc21)C1CC1 [Example 61, 1-Cyclopropyl-2-[6-[3-(difluoromethyl)phenyl]pyrazolo[4,3-b]pyridin-1-yl]ethanone] | 12 | 0.43
10 | Cc1c(F)ccc(-c2cnc3cnn(CC(=O)C4CC4)c3c2)c1C [Example 78, 1-Cyclopropyl-2-[6-(4-fluoro-2,3-dimethyl-phenyl)pyrazolo[4,3-b]pyridin-1-yl]ethanone] | 85 | 0.52
11 | O=C(Cn1ncc2ncc(-c3cccc(Cl)c3F)cc21)C1CC1 [Example 67, 2-[6-(3-Chloro-2-fluoro-phenyl)pyrazolo[4,3-b]pyridin-1-yl]-1-cyclopropyl-ethanone] | 16 | 
12 | CN1C(=O)OCC1Cn1ncc2ncc(-c3ccc(F)c(C(F)F)c3)cc21 (racemic) [Example 124, (RS)-4-[[6-[3-(Difluoromethyl)-4-fluoro-phenyl]pyrazolo[4,3-b]pyridin-1-yl]methyl]-3-methyl-oxazolidin-2-one] | 1890 | 
13 | CCC(F)(F)Cn1ncc2ncc(-c3ccc(F)c(C(F)F)c3)cc21 [Example 98, 1-(2,2-Difluorobutyl)-6-[3-(difluoromethyl)-4-fluoro-phenyl]pyrazolo[4,3-b]pyridine] | 89 | 
14 | CC(C)C(O)Cn1ncc2ncc(-c3cc(F)c(F)c(F)c3)cc21 (racemic) [Example 97, (RS)-3-Methyl-1-[6-(3,4,5-trifluorophenyl)pyrazolo[4,3-b]pyridin-1-yl]butan-2-ol] | 591 | 
15 | CCC(=O)Cn1ncc2ncc(-c3cc(F)cc(F)c3)cc21 [Example 1, 1-[6-(3,5-Difluorophenyl)pyrazolo[4,3-b]pyridin-1-yl]butan-2-one] | 19 | 
16 | CC(C)C(=O)Cn1ncc2ncc(-c3cccc(C(F)(F)F)c3)cc21 [Example 2, 3-Methyl-1-[6-[3-(trifluoromethyl)phenyl]pyrazolo[4,3-b]pyridin-1-yl]butan-2-one] | 61 | 
17 | CC(C)C(=O)Cn1ncc2ncc(-c3cc(F)c(F)c(F)c3)cc21 [Example 53, 3-Methyl-1-[6-(3,4,5-trifluorophenyl)pyrazolo[4,3-b]pyridin-1-yl]butan-2-one] | 41 | 
